Reference: paper PMC9127112, “Opening opportunities for Kd determination and screening of MHC peptide complexes” (Communications Biology, 2022)
Values joined by “and” are separate entries in the source; they are usually repeats but may differ in a detail not shown here. Equal entries are not always repeated. Ends that are not written are not given here. Peptide text beside a SMILES is read from it.

How the values were obtained:
[1] = molecular target: T1, dsA2: HLA-A*02:01(Y84C/A139C) disulfide mutant heavy chain / β2m complex (Homo sapiens, UniProt P04439, A163C/D140Y/D185E/D98H/E176V/E277Q/G131W/G231S/I119V/I121R/I166T/I218V/L300P/L318F/N151K/N90K/P208A/P217A/Q86G/Q94H/R138H/R169H/T345S/Y108C); assay: biochemical; assay type: binding
T1 construct: made in house; host or cells: Escherichia coli (pET3a)

[2] = molecular target: T1, dsA2: HLA-A*02:01(Y84C/A139C) disulfide mutant heavy chain / β2m complex; assay: native mass spectrometry (nMS) of peptide binding to empty dsA2;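 also: native nano-electrospray MS on Q-Tof II in positive mode, dsA2 at 10 µM with peptide 50–200 µM, incubated ≥10 min on ice, argon collision gas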
[3] = molecular target: T2, dsA2: HLA-A*02:01(Y84C/A139C) disulfide mutant heavy chain / β2m complex (Homo sapiens, UniProt P04439, D140Y/D185E/D98H/E176V/E277Q/G131W/G231S/I119V/I121R/I166T/I218V/L300P/L318F/N151K/N90K/P208A/P217A/Q86G/Q94H/R138H/R169H/T345S/A163C/Y108C); assay: as above; conditions: for AUC dsA2 (empty) / AUC dsA2/erucamide / AUC dsA2/pep / AUC dsA2/pep/pep: cone 150 V, ratio 1:5, raw data, mean of >=3 measurements
T2 construct: made in house; host or cells: Escherichia coli (pET3a)

[4] = molecular target: empty disulfide-stabilized HLA-A*02:01(Y84C/A139C) in complex with beta-2 microglobulin (human); assay: isothermal analysis of nanoscale differential scanning fluorimetry (iDSF)
[5] = molecular target: empty disulfide-stabilized HLA-A*02:01(Y84C/A139C) in complex with beta-2 microglobulin (human); assay: native MS

Compound	Kd [1] [µM]	AUC dsA2 (empty) ([3]; acceleration voltage 10 V) [%]	AUC dsA2/erucamide ([3]; acceleration voltage 10 V) [%]	AUC dsA2/pep ([3]; acceleration voltage 10 V)	AUC dsA2/pep/pep ([3]; acceleration voltage 10 V)	AUC dsA2 (empty) ([3]; acceleration voltage 25 V) [%]	AUC dsA2/erucamide ([3]; acceleration voltage 25 V) [%]	AUC dsA2/pep ([3]; acceleration voltage 25 V) [%]	AUC dsA2/pep/pep ([3]; acceleration voltage 25 V) [%]	AUC dsA2 (empty) ([3]; acceleration voltage 50 V) [%]	AUC dsA2/erucamide ([3]; acceleration voltage 50 V) [%]	AUC dsA2/pep ([3]; acceleration voltage 50 V) [%]	AUC dsA2/pep/pep ([3]; acceleration voltage 50 V) [%]	Kd [4] [µM]	Kd ([2]; Kd,high) [µM]	Kd ([2]; Kd,low) [µM]	further results
CC(C)C[C@H](NC(=O)[C@@H](N)CC(N)=O)C(=O)N[C@H](C(=O)N1CCC[C@H]1C(=O)O)C(C)C [NP4] (H-NLVP-OH)	50	55	33.8	11%	0.6%	57.8	31.1	10.4	0.69	92.4	4.3	2.6	0.8	–	–	–	Kd [2]: 350 µM and 100 µM
CC(C)[C@H](N)C(=O)N[C@@H](C)C(=O)N[C@H](C(=O)N[C@H](C(=O)O)C(C)C)[C@@H](C)O [VV4] (H-VATV-OH)	50	68	18.093	14%	0%	68	17.6	14	0	92	4.0	4.1	0	–	–	–	–
CCCCCCCC/C=C\CCCCCCCCCCCC(N)=O [erucamide, (Z)-docos-13-enamide]	–	–	–	–	–	–	–	–	–	–	–	–	–	–	–	–	occupancy of dsA2 with erucamide ([3]; no peptide, linear extrapolation to cone voltage <=48 V (experimentally unfeasible)): 100%
Ac-NV9-NH2, NV9 with acetylated N-terminus and amidated C-terminus (peptide)	–	–	–	–	–	–	–	–	–	–	–	–	–	4	–	–	Kd [5]: 80 µM
GLGGGGGGV [GV9]	–	52	4.3	43 ± 2% and 43%	1.5 ± 0.4% and 1.5%	50	5	43	2.2	62	1.7	35	1.1	–	–	–	Kd ([1]; dsA2 2.2 µM, 20 mM Tris pH 8, 150 mM NaCl, twofold serial dilution, 11 concentrations, two independent measurements, values marked * (below 200 nM) not reliable, read-out: Kd,iDSF): 0.36 µM; Kd ([2]; read-out: Kd,high): 35 µM; Kd ([2]; read-out: Kd,low): 0.5 µM
LVPMVATV [LV8]	0.008	42	1.7	54%	2.8%	40	1.5	54	3.9	53	0.4	45	1.6	–	–	–	–
MV5 (MVATV), truncated NV9 variant (peptide)	–	–	–	–	–	–	–	–	–	–	–	–	–	1.6	–	–	–
MVATV [MV5]	1.6	64	10.4	23%	3.2%	63	10.4	23	3.7	80	3.3	15	1.5	–	110	3	–
NA7 (NLVPMVA), truncated NV9 variant (peptide)	–	–	–	–	–	–	–	–	–	–	–	–	–	3.6	–	–	–
NLVPM [NM5]	11	62	19	17.9%	1.0%	64	17	18.0	1.2	90.3	1.3	8.1	0.3	–	180	15	–
NLVPMV [NV6]	9	66	24	10%	0.5%	66	22	11	0.69	91.2	2.9	4.1	1.9	–	380	30	–
NLVPMVA [NA7]	3.6	75	8	16%	0.8%	68	11	19	1.4	86	1.8	12	0.5	–	210	2	–
NLVPMVAT [NT8]	2.6	47.3	24	28%	0.6%	50	21	28.2	1	75	1.6	23	0.2	–	–	–	Kd [2]: 92 µM and 30 µM
NM5 (NLVPM), truncated NV9 variant (peptide)	–	–	–	–	–	–	–	–	–	–	–	–	–	11	–	–	–
NV6 (NLVPMV), truncated NV9 variant (peptide)	–	–	–	–	–	–	–	–	–	–	–	–	–	9	–	–	–
PMVATV [PV6]	15	68	19	12%	0.5%	68	19	13	0.5	90	5	5	0.1	–	300	15	–
PV6 (PMVATV), truncated NV9 variant (peptide)	–	–	–	–	–	–	–	–	–	–	–	–	–	15	–	–	–
VPMVATV [VV7]	7.8	61.8	19	17%	1.7%	62	20.2	17	1.16	96	1.3	3	0	–	180	15	–
VV4 (VATV), truncated NV9 variant (peptide)	–	–	–	–	–	–	–	–	–	–	–	–	–	50	–	–	–
VV7 (VPMVATV), truncated NV9 variant (peptide)	–	–	–	–	–	–	–	–	–	–	–	–	–	7.8	–	–	–
